From patent US20100035756A1, “TRIAZOLOPHYRIDINE DERIVATIVES AS HERBICIDES” (SYNGENTA LIMITED, priority 2006, published 2010)

Key:
[1] = test system: Monocotyledonous and dicotyledonous test plants; assay: Herbicidal action prior to emergence of the plants (pre-emergence action), Example B1; format: in vivo; conditions: preemergence application, 250 g/ha, evaluated after 4 weeks, 100%=total damage, 0%=no damage
Protocol: (§1) Monocotyledonous and dicotyledonous test plants are sown in seed trays in standard soil. Immediately after sowing, the test compounds are applied by spraying in the form of an aqueous suspension (prepared from a wettable powder (Example F3, b) according to WO 97/34485) or in the form of an emulsion (prepared from an emulsifiable concentrate (Example F1, c) according to WO 97/34485) in a concentration of 250 g/ha. The test plants are then grown in a greenhouse under optimum conditions. After a 4-week test period, the test is evaluated (100%=total damage to plant; 0%=no damage to plant; NC not evaluated).

[2] = test system: Monocotyledonous and dicotyledonous test plants; assay: Herbicidal action after emergence of the plants (post-emergence herbicidal action), Example B2; format: in vivo; conditions: postemergent application, 125 g/ha, 2- to 3-leaf stage, evaluated after 2-3 weeks, 100%=total damage
Protocol: as §1, with “When the test plants are at the 2- to 3-leaf stage,” for “Immediately after sowing,”, “125” for “250”, “grown on” for “grown”, “2- to 3-week” for “4-week”, “plant).” for “plant; NC not evaluated).”

SMILES	herbicidal damage, ABUTH [1]	herbicidal damage, AMARE [1]	herbicidal damage, BRAPL [1]	herbicidal damage, DIGSA [1]	herbicidal damage, ECHCG [1]	herbicidal damage, SETFA [1]	herbicidal damage, STEME [1]	herbicidal damage, VERPE [1]	herbicidal damage, ABUTH [2]	herbicidal damage, AMARE [2]	herbicidal damage, CHEAL [2]	herbicidal damage, DIGSA [2]	herbicidal damage, SETFA [2]	herbicidal damage, SINAR [2]	herbicidal damage, VERPE [2]	herbicidal damage, XANST [2]
O=C(C1=C(O)C2CCC(C2)C1=O)c1ccc(C(F)(F)F)n2ncnc12 (stereo not drawn) [2.1]	100%	100%	100%	100%	90%	90%	70%	40%	–	–	–	–	–	–	–	–
Cc1nnc2c(C(=O)C3=C(O)C4CCC(C4)C3=O)ccc(C(F)F)n12 (stereo not drawn) [Compound 1.54]	20%	10%	40%	0%	0%	0%	0%	20%	70%	80%	70%	60%	50%	60%	60%	70%
CC(C)c1nnc2c(C(=O)C3=C(O)C4CCC(C4)C3=O)ccc(C(F)(F)F)n12 (stereo not drawn) [Compound 1.7]	100%	100%	80%	100%	80%	80%	100%	100%	90%	90%	80%	80%	70%	80%	90%	80%
CCOc1nc2c(C(=O)C3=C(O)C4CCC(C4)C3=O)ccc(C(F)(F)F)n2n1 (stereo not drawn) [2.209]	100%	100%	90%	80%	70%	80%	70%	30%	80%	90%	80%	80%	80%	80%	80%	80%
O=C1CCCC(O)=C1C(=O)c1ccc(C(F)(F)F)n2c(C3CC3)nnc12 [Compound 3.7]	30%	30%	30%	30%	10%	10%	20%	10%	80%	90%	70%	80%	80%	90%	80%	80%
Cc1nc2c(C(=O)C3=C(O)C4CCC(C4)C3=O)ccc(C(F)(F)F)n2n1 (stereo not drawn) [2.4]	70%	60%	10%	30%	–	20%	60%	10%	80%	80%	80%	70%	70%	80%	30%	80%
COCc1nnc2c(C(=O)C3=C(O)C4CCC(C4)C3=O)ccc(C(F)(F)F)n12 (stereo not drawn) [Compound 1.16]	100%	100%	70%	80%	100%	80%	100%	50%	80%	90%	80%	70%	70%	80%	80%	80%
O=C(C1=C(O)C2CCC(C2)C1=O)c1ccc(C(F)(F)F)n2c(-c3ccc(Cl)cc3)nnc12 (stereo not drawn) [Compound 1.35]	50%	100%	100%	100%	0%	30%	70%	40%	–	–	–	–	–	–	–	–
CC1(C)C(=O)C(C(=O)c2ccc(C(F)(F)F)n3cnnc23)=C(O)C(C)(C)C1=O [Compound 5.1]	100%	100%	100%	100%	90%	40%	100%	80%	–	–	–	–	–	–	–	–
O=C(C1=C(O)C2CCC(C2)C1=O)c1ccc(C(F)(F)F)n2nc(-c3ccc(Cl)cc3)nc12 (stereo not drawn) [2.35]	0%	0%	50%	20%	0%	0%	50%	0%	–	–	–	–	–	–	–	–
O=C1CCCC(O)=C1C(=O)c1ccc(C(F)(F)F)n2c(Cl)nnc12 [Compound 3.2]	100%	100%	0%	80%	70%	0%	100%	100%	–	–	–	–	–	–	–	–
O=C1CCCC(O)=C1C(=O)c1ccc(C(F)(F)F)n2c(-c3cccnc3)nnc12 [Compound 3.15]	10%	0%	30%	30%	30%	30%	60%	30%	–	–	–	–	–	–	–	–
O=C1CCCC(O)=C1C(=O)c1ccc(C(F)(F)F)n2c(OC(F)F)nnc12 [Compound 3.12]	50%	100%	60%	10%	0%	0%	0%	–	–	–	–	–	–	–	–	–
O=C1CCCC(O)=C1C(=O)c1ccc(C(F)(F)F)n2cnnc12 [Compound 3.1]	100%	100%	40%	100%	10%	0%	70%	60%	–	–	–	–	–	–	–	–
CC1(C)C(=O)C(C(=O)c2ccc(C(F)(F)F)n3c(Br)nnc23)=C(O)C(C)(C)C1=O [Compound 5.2]	–	–	–	–	–	–	–	–	90%	80%	100%	70%	80%	90%	90%	70%
Cc1nc2c(C(=O)C3=C(O)CCCC3=O)ccc(C(F)(F)F)n2n1 [Compound 11.3]	70%	40%	50%	30%	0%	10%	40%	40%	–	–	–	–	–	–	–	–
